Columns and labels:
Type in all cases: functional
[1] = test system: RPMI-8226; experiment: Cytotoxicity against human RPMI8226 cells assessed as growth inhibition
[2] = test system: HL-60(TB); experiment: Cytotoxicity against human HL-60(TB) cells assessed as growth inhibition
[3] = test system: K562; experiment: Cytotoxicity against human K562 cells assessed as growth inhibition
[4] = test system: CCRF-CEM; experiment: Cytotoxicity against human CCRF-CEM cells assessed as growth inhibition
[5] = test system: MDA-MB-468; experiment: Cytotoxicity against human MDA-MB-468 cells assessed as growth inhibition
[6] = test system: T47D; experiment: Cytotoxicity against human T47D cells assessed as growth inhibition
[7] = test system: BT-549; experiment: Cytotoxicity against human BT549 cells assessed as growth inhibition
[8] = Cytotoxicity against human Hs 578T cells assessed as growth inhibition
[9] = test system: MDA-MB-231; experiment: Cytotoxicity against human MDA-MB-231 cells assessed as growth inhibition
[10] = test system: MCF7; experiment: Cytotoxicity against human MCF7 cells assessed as growth inhibition
[11] = test system: DU-145; experiment: Cytotoxicity against human DU145 cells assessed as growth inhibition
[12] = test system: PC-3; experiment: Cytotoxicity against human PC3 cells assessed as growth inhibition
[13] = test system: TK-10; experiment: Cytotoxicity against human TK10 cells assessed as growth inhibition
[14] = Cytotoxicity against human UO31 cells assessed as growth inhibition; conditions: UO-31
[15] = test system: SN12C; experiment: Cytotoxicity against human SN12C cells assessed as growth inhibition
[16] = test system: RXF 393; experiment: Cytotoxicity against human RXF393 cells assessed as growth inhibition
[17] = test system: CAKI-1; experiment: Cytotoxicity against human CAKI-1 cells assessed as growth inhibition
[18] = test system: ACHN; experiment: Cytotoxicity against human ACHN cells assessed as growth inhibition
[19] = test system: 786-0; experiment: Cytotoxicity against human 786-0 cells assessed as growth inhibition
[20] = test system: A498; experiment: Cytotoxicity against human A498 cells assessed as growth inhibition
[21] = test system: SK-OV-3; experiment: Cytotoxicity against human SKOV3 cells assessed as growth inhibition
[22] = Cytotoxicity against human NCI-ADR-RES cells assessed as growth inhibition
[23] = Cytotoxicity against human OVCAR8 cells assessed as growth inhibition; conditions: OVCAR-8
[24] = Cytotoxicity against human OVCAR5 cells assessed as growth inhibition; conditions: OVCAR-5
[25] = Cytotoxicity against human OVCAR4 cells assessed as growth inhibition; conditions: OVCAR-4
[26] = Cytotoxicity against human OVCAR3 cells assessed as growth inhibition; conditions: OVCAR-3
[27] = Cytotoxicity against human UACC62 cells assessed as growth inhibition; conditions: UACC-62
[28] = test system: IGROV-1; experiment: Cytotoxicity against human IGROV1 cells assessed as growth inhibition
[29] = Cytotoxicity against human UACC257 cells assessed as growth inhibition; conditions: UACC-257
[30] = test system: SK-MEL-5; experiment: Cytotoxicity against human SK-MEL-5 cells assessed as growth inhibition
[31] = test system: SK-MEL-28; experiment: Cytotoxicity against human SK-MEL-28 cells assessed as growth inhibition
[32] = test system: SK-MEL-2; experiment: Cytotoxicity against human SK-MEL-2 cells assessed as growth inhibition
[33] = test system: MDA-MB-435; experiment: Cytotoxicity against human MDA-MB-435 cells assessed as growth inhibition
[34] = test system: M14; experiment: Cytotoxicity against human M14 cells assessed as growth inhibition
[35] = test system: Malme-3M; experiment: Cytotoxicity against human MALME-3M cells assessed as growth inhibition
[36] = test system: LOX IMVI; experiment: Cytotoxicity against human LOXIMVI cells assessed as growth inhibition
[37] = test system: U-251; experiment: Cytotoxicity against human U251 cells assessed as growth inhibition
[38] = test system: SNB-75; experiment: Cytotoxicity against human SNB75 cells assessed as growth inhibition
[39] = test system: SNB-19; experiment: Cytotoxicity against human SNB19 cells assessed as growth inhibition
[40] = test system: SF-295; experiment: Cytotoxicity against human SF295 cells assessed as growth inhibition
[41] = test system: SF-539; experiment: Cytotoxicity against human SF539 cells assessed as growth inhibition
[42] = test system: SF-268; experiment: Cytotoxicity against human SF268 cells assessed as growth inhibition
[43] = test system: SW-620; experiment: Cytotoxicity against human SW620 cells assessed as growth inhibition
[44] = test system: KM12; experiment: Cytotoxicity against human KM12 cells assessed as growth inhibition
[45] = test system: HT-29; experiment: Cytotoxicity against human HT-29 cells assessed as growth inhibition
[46] = Cytotoxicity against human HCT15 cells assessed as growth inhibition; conditions: HCT-15
[47] = test system: HCT-116; experiment: Cytotoxicity against human HCT116 cells assessed as growth inhibition
[48] = test system: HCC 2998; experiment: Cytotoxicity against human HCC2998 cells assessed as growth inhibition
[49] = test system: NCI-H522; experiment: Cytotoxicity against human NCI-H522 cells assessed as growth inhibition
[50] = test system: COLO 205; experiment: Cytotoxicity against human COLO205 cells assessed as growth inhibition
[51] = test system: NCI-H460; experiment: Cytotoxicity against human NCI-H460 cells assessed as growth inhibition
[52] = test system: NCI-H23; experiment: Cytotoxicity against human NCI-H23 cells assessed as growth inhibition
[53] = test system: NCI-H322M; experiment: Cytotoxicity against human NCI-H322M cells assessed as growth inhibition
[54] = test system: NCI-H226; experiment: Cytotoxicity against human NCI-H226 cells assessed as growth inhibition
[55] = test system: HOP-62; experiment: Cytotoxicity against human HOP62 cells assessed as growth inhibition
[56] = test system: HOP-92; experiment: Cytotoxicity against human HOP92 cells assessed as growth inhibition
[57] = test system: A549; experiment: Cytotoxicity against human A549 cells assessed as growth inhibition
[58] = Cytotoxicity against human EKVX cells assessed as growth inhibition
[59] = test system: SR; experiment: Cytotoxicity against human SR cells assessed as growth inhibition
[60] = test system: MOLT-4; experiment: Cytotoxicity against human MOLT4 cells assessed as growth inhibition

**Q.** For `Cc1cc(/C=C2\CCc3c([nH]c4ccccc34)C2=O)cc(C)c1O`, which GI50 [1] is on record?
**A.** 470 nM

**Q.** And the GI50 [2]?
**A.** 210 nM

**Q.** What about the GI50 [3] of the same molecule?
**A.** 320 nM

**Q.** And the GI50 [4]?
**A.** 360 nM

**Q.** What about the GI50 [5] of the same molecule?
**A.** 290 nM

**Q.** What about the GI50 [6] of the same molecule?
**A.** 740 nM

**Q.** What about the GI50 [7] of the same molecule?
**A.** 530 nM

**Q.** And the GI50 [8]?
**A.** 380 nM

**Q.** And the GI50 [9]?
**A.** 1060 nM

**Q.** What about the GI50 [10] of the same molecule?
**A.** 350 nM

**Q.** What about the GI50 [11] of the same molecule?
**A.** 540 nM

**Q.** What about the GI50 [12] of the same molecule?
**A.** 1060 nM

**Q.** And the GI50 [13]?
**A.** 540 nM

**Q.** And the GI50 [14]?
**A.** 450 nM

**Q.** And the GI50 [15]?
**A.** 620 nM

**Q.** And the GI50 [16]?
**A.** 520 nM

**Q.** And the GI50 [17]?
**A.** 610 nM

**Q.** What about the GI50 [18] of the same molecule?
**A.** 770 nM

**Q.** What about the GI50 [19] of the same molecule?
**A.** 880 nM

**Q.** And the GI50 [20]?
**A.** 1830 nM

**Q.** And the GI50 [21]?
**A.** 470 nM

**Q.** And the GI50 [22]?
**A.** 310 nM

**Q.** What about the GI50 [23] of the same molecule?
**A.** 530 nM

**Q.** What about the GI50 [24] of the same molecule?
**A.** 2350 nM

**Q.** What about the GI50 [25] of the same molecule?
**A.** 1350 nM

**Q.** What about the GI50 [26] of the same molecule?
**A.** 330 nM

**Q.** And the GI50 [27]?
**A.** 420 nM

**Q.** And the GI50 [28]?
**A.** 740 nM

**Q.** And the GI50 [29]?
**A.** 370 nM

**Q.** And the GI50 [30]?
**A.** 330 nM

**Q.** What about the GI50 [31] of the same molecule?
**A.** 740 nM

**Q.** And the GI50 [32]?
**A.** 320 nM

**Q.** And the GI50 [33]?
**A.** 120 nM

**Q.** What about the GI50 [34] of the same molecule?
**A.** 340 nM

**Q.** And the GI50 [35]?
**A.** 380 nM

**Q.** What about the GI50 [36] of the same molecule?
**A.** 760 nM

**Q.** What about the GI50 [37] of the same molecule?
**A.** 430 nM

**Q.** What about the GI50 [38] of the same molecule?
**A.** 290 nM

**Q.** What about the GI50 [39] of the same molecule?
**A.** 580 nM

**Q.** What about the GI50 [40] of the same molecule?
**A.** 1880 nM

**Q.** What about the GI50 [41] of the same molecule?
**A.** 320 nM

**Q.** And the GI50 [42]?
**A.** 730 nM

**Q.** What about the GI50 [43] of the same molecule?
**A.** 410 nM

**Q.** What about the GI50 [44] of the same molecule?
**A.** 390 nM

**Q.** And the GI50 [45]?
**A.** 4320 nM

**Q.** What about the GI50 [46] of the same molecule?
**A.** 420 nM

**Q.** What about the GI50 [47] of the same molecule?
**A.** 440 nM

**Q.** What about the GI50 [48] of the same molecule?
**A.** 2210 nM

**Q.** And the GI50 [49]?
**A.** 130 nM

**Q.** And the GI50 [50]?
**A.** 14200 nM

**Q.** And the GI50 [51]?
**A.** 410 nM

**Q.** What about the GI50 [52] of the same molecule?
**A.** 650 nM

**Q.** And the GI50 [53]?
**A.** 530 nM

**Q.** And the GI50 [54]?
**A.** 3290 nM

**Q.** What about the GI50 [55] of the same molecule?
**A.** 650 nM

**Q.** And the GI50 [56]?
**A.** 780 nM

**Q.** What about the GI50 [57] of the same molecule?
**A.** 550 nM

**Q.** What about the GI50 [58] of the same molecule?
**A.** 3380 nM

**Q.** And the GI50 [59]?
**A.** 220 nM

**Q.** What about the GI50 [60] of the same molecule?
**A.** 560 nM

**Q.** What does the source list for `COc1cc2c(c(N)c1OC)C(=O)/C(=C\c1cc(C)c(O)c(C)c1)C2` [INDANOCINE]?
**A.** GI50 [1]: 10 nM; GI50 [2]: 10 nM; GI50 [3]: 10 nM; GI50 [4]: 10 nM; GI50 [6]: 100000 nM; GI50 [7]: 10000 nM; GI50 [9]: 10 nM; GI50 [10]: 10 nM; GI50 [11]: 10 nM; GI50 [12]: 10 nM; GI50 [13]: 79400 nM; GI50 [14]: 80 nM; GI50 [15]: 10 nM; GI50 [16]: 30 nM; GI50 [17]: 3980 nM; GI50 [18]: 60 nM; GI50 [19]: 10 nM; GI50 [20]: 7940 nM; GI50 [21]: 10 nM; GI50 [22]: 10 nM; GI50 [23]: 10 nM; GI50 [24]: 630 nM; GI50 [25]: 7940 nM; GI50 [26]: 10 nM; GI50 [27]: 10 nM; GI50 [28]: 40 nM; GI50 [29]: 100000 nM; GI50 [30]: 10 nM; GI50 [31]: 1000 nM; GI50 [32]: 1000 nM; GI50 [33]: 10 nM; GI50 [34]: 10 nM; GI50 [36]: 10 nM; GI50 [37]: 20 nM; GI50 [39]: 10 nM; GI50 [40]: 60 nM; GI50 [41]: 10 nM; GI50 [42]: 10 nM; GI50 [43]: 10 nM; GI50 [44]: 10 nM; GI50 [45]: 2510 nM; GI50 [46]: 10 nM; GI50 [47]: 10 nM; GI50 [48]: 2000 nM; GI50 [49]: 10 nM; GI50 [50]: 5010 nM; GI50 [51]: 10 nM; GI50 [52]: 10 nM; GI50 [53]: 10 nM; GI50 [54]: 3980 nM; GI50 [55]: 20 nM; GI50 [56]: 100000 nM; GI50 [57]: 10 nM; GI50 [58]: 10 nM; GI50 [59]: 10 nM; GI50 [60]: 10 nM

From ChEMBL document CHEMBL3217497, “Design, synthesis and antiproliferative activity of indole analogues of indanocine” (2013)
